In patent publication US8450333B2, “Molecules for regulating cell death” (The Regents of The University of California, priority 2003, dated 2013):

Key:
dynamin-1 = target: T1, dynamin-1 (Homo sapiens, UniProt Q05193); test: Assembly-stimulated GTP hydrolysis by dynamin-1; format: biochemical
T1 sequence (Q05193 1-864): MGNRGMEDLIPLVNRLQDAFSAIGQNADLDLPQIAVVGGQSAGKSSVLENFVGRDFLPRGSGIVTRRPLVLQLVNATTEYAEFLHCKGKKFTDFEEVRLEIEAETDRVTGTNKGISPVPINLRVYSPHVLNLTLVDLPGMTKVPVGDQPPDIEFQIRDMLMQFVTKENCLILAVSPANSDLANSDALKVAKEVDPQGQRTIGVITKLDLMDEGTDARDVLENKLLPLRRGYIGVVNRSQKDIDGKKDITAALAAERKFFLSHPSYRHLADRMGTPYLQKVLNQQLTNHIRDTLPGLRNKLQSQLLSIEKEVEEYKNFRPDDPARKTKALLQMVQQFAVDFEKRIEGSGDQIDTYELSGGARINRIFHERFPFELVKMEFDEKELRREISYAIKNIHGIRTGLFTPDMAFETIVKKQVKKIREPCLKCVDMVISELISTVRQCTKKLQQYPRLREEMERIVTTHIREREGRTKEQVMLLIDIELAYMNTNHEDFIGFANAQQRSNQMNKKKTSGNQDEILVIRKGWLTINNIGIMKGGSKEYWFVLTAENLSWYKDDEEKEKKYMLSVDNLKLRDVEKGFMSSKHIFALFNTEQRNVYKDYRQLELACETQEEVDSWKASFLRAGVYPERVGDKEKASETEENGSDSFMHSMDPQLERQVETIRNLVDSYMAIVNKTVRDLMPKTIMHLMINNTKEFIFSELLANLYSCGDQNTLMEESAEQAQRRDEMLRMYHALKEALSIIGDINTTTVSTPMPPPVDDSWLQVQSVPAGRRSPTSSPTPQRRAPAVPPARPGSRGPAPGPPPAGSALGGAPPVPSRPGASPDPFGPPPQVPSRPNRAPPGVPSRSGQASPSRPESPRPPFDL
Excerpt: Our observations raise the question of whether mfisi-1 is simply a general inhibitor of GTPase super family members and/or DRPs. It seems unlikely that mfisi-1 is an inhibitor of all GTPase superfamily members, given that it has no effect on GTPase-dependent activities, such as maintenance of the actin cytoskeleton. To more directly address this question, however, we examined the effects of mfisi-1 on the DRP, dynamin-1, which functions during endocytosis in the scission of clathrin coated pits from the plasma membrane. […] We will continue to explore the specificity of mfisi-1 for DRPs by determining its effects on the mammalian Dnm1 ortholog, Drp1. […] Taken together, our data are consistent with mfisi-1 functioning in vivo as a selective inhibitor of the dynamin-related GTPase, Dnm1, to block mitochondrial fission.

mammalian COS cells [1] = test: Mitochondrial morphology in mammalian COS cells; format: cell-based
Excerpt: Drp1, the mammalian mitochondrial fission DRP, has a high degree of similarity and identity to its yeast ortholog, Dnm1. This encouraged us to exploit the chemical genetic approach and examine the effects of mfisi-1 on mitochondrial morphology in mammalian cells. In mammalian cells, it has been established that when fission is retarded by expression of dominant-negative Drp1, mitochondria become progressively more interconnected, form net-like structures, and collapse into degenerate perinuclear structures in cells. Remarkably, the addition of mfisi-1 to mammalian COS cells in culture caused a rapid and reversible change in mitochondrial morphology equivalent to that observed upon expression of dominant negative Drp1 in double-binded experiments (FIG. 12, n=100: untreated; 0% collapsed nets, 14% loose nets, 70% reticular, 15% fragmented; mfisi-1 treated; n=100, 19% collapsed nets, 45% loose nets, 36% reticular, 0% fragmented). The EC50 of mfisi-1 effects on mitochondrial morphology in mammalian cells is similar to that observed for the effect of mfisi-1 on mitochondrial morphology in yeast (EC50=10 µM).

mammalian COS cells [2] = test: Mitochondrial fragmentation induced by staurosporine (STS) in COS cells; format: cell-based; settings: COS cells stimulated with STS; mfisi-1 at 50 μM; n=100
Excerpt: As indicated above, we observed that mfisi-1 causes changes in mitochondrial morphology in mammalian cells that are consistent with a block in mitochondrial fission. Thus, we examined the effects of mfisi-1 on mitochondrial fragmentation caused by the intrinsic apoptotic stimulus staurosporine (STS) in mammalian COS cells. […] These observations indicate that mfisi-1 retards apoptosis-stimulated Drp1-dependent mitochondrial fission.

yeast cells = test: Time-lapse fluorescence microscopy of mitochondrial fission and fusion events in yeast; format: cell-based, S. cerevisiae; settings: time-lapse after drug addition
Excerpt: To distinguish whether compounds specifically affect mitochondrial fission or fusion, we directly measure the rates of these events by examining the behavior of mitochondria using time-lapse fluorescence microscopy after drug addition. We routinely perform this type of experiment using a DeltaVision deconvolution microscope.
(§1) Formally, the small molecules we identified could produce their phenotypes by either inhibiting or activating fission or fusion. To distinguish the exact effects of mfisi-1 and other small molecules identified in our screens on mitochondrial dynamics, we have directly measured the rates of fission and fusion events after drug addition in yeast cells by examining the behavior of mitochondria using time-lapse fluorescence microscopy. […] In contrast, in DMSO treated control cells, both fission and fusion events were easily detected in the same time frame.

[3] = test system: actin cytoskeleton and peripheral ER network; test: Actin cytoskeleton and peripheral ER network in yeast; format: cell-based; settings: 100 μM, versus DMSO-treated cells, n=50
Excerpt: These structures are routinely examined in yeast mitochondrial morphology mutants as a test for the specificity of the mitochondrial phenotype.

Δdnm1 cells = test: Mitochondrial morphology in Δdnm1 yeast cells; format: cell-based
Excerpt: as §1
To determine the target of mfisi-2, we will characterize this small molecule using the assays for fission. We will also determine whether mfisi-2 affects mitochondrial morphology in mammalian cells. If this is the case, then mfisi-2 might inhibit mitochondrial fission by affecting conserved fission-related activities. […] If mfisi-2 produces mitochondrial net-like structures in mammalian cells, we will determine its effects on apoptosis as described previously. Prioritization and characterization of potential mitochondrial fusion inhibitors In our screens for mitochondrial fusion inhibitors, we identified a total of 37 compounds. […] To determine whether fragmentation in drug-treated cells is strictly dependent upon Dnm1-dependent fission, we determined the effects of these small molecules on mitochondrial morphology in Δdnm1 cells. […]

COc1cc(-n2c(S)nc3ccccc3c2=O)c(Cl)cc1Cl [mfisi-1, 3-(2,4-Dichloro-5-methoxy-phenyl)-2-mercapto-3H-quinazolin-4-one]
effect on assembly-stimulated rates of GTP hydrolysis for dynamin-1 (dynamin-1): had no effect
% collapsed nets (mammalian COS cells [1]; COS cells, n=100): 19%
% fragmented (mammalian COS cells [1]; COS cells, n=100): 0%
% loose nets (mammalian COS cells [1]; COS cells, n=100): 45%
% reticular (mammalian COS cells [1]; COS cells, n=100): 36%
EC50 (mammalian COS cells [1]; COS, mammalian cells, similar to yeast, read-out: EC50, effects on mitochondrial morphology): 10 µM
% collapsed nets (mammalian COS cells [2]): 0%
% fragmented (mammalian COS cells [2]): 46%
% loose nets (mammalian COS cells [2]): 8%
% reticular (mammalian COS cells [2]): 46%
mitochondrial fission events / rate of fission (yeast cells): no detectable fission events were observed
mitochondrial fusion events / rate of fusion (yeast cells): fusion events occurred
changes in actin cytoskeleton or peripheral ER network [3]: did not result in significant changes
effect on mitochondrial morphology in Δdnm1 cells (Δdnm1 cells): did not change the net-like morphology
